Data set [1] relates to Smn protein in SMA patient fibroblast cells (GM03813). Kind of data set: Smn protein assay in cultured cells (SMN HTRF). Particulars: SMA patient fibroblast cells, 48 hours; for EC1.5x for Smn protein expression: 7-point concentration curve, SMN HTRF, concentration producing 1.5 times Smn protein vs DMSO vehicle control; for maximum fold (Fold) increase of Smn protein: 7-point concentration data, fold relative to vehicle control. Format: cell-based, human. A digest of the protocol: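 Patient-derived SMA fibroblasts are plated, given compound for 48 h, then lysed in RIPA buffer with protease inhibitors. Lysate Smn is detected by an anti-SMN d2/kryptate HTRF pair incubated overnight. The normalized ΔF is divided by the vehicle ΔF to give fold change, from which EC1.5× and maximum fold are taken.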

Data set [2] has as its system SMN2 minigene mRNA (SMN2-A minigene) in HEK293H cells. Put plainly: SMN2 minigene mRNA splicing RT-qPCR assay in cultured cells. The data set is classed as cell-based, human. To be noted: Homo sapiens, HEK293-H; concentration increasing full length SMN2 mRNA 1.5-fold relative to vehicle-treated cells; HEK293H cells with SMN2-A minigene, 24 hours, 7-point concentration data; read-out: EC1.5x for production of full length SMN2 mRNA. A digest of the protocol:
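Cells are seeded, left to attach 4-6 h, then dosed with test compound across seven concentrations and incubated 24 h. Lysates undergo RT-qPCR with primers/probe specific to the exon 7-containing minigene transcript, co-amplified with GAPDH. Fold change over vehicle is calculated, and EC1.5× marks the 1.5-fold point.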
(In qPCR the cycle at which signal appears reflects the starting amount.)

Bounds are passed on as bounds.

For orientation: melting point means the temperature, or range, at which the solid turns liquid.

`COc1ccc(-c2cc(=O)n3cc(C4=CCN(CCO)CC4)cc(C)c3n2)cc1OC` [Compound 346, 2-(3,4-dimethoxyphenyl)-7-[1-(2-hydroxyethyl)-1,2,3,6-tetrahydropyridin-4-yl]-9-methyl-4H-pyrido[1,2-a]pyrimidin-4-one] had a melting point of 169 to 179 °C. Further, in data set [1], the “EC1.5x for Smn protein expression” value is listed as “**** (an EC1.5x≤0.3 μM is indicated by four stars (****))”; the “maximum fold (Fold) increase of Smn protein” value (shortened to “maximum fold (Fold) increase”) was “**** (a fold increase between >1.5 and ≤1.65 is indicated by four stars (****))”. Further, in data set [2], the EC (1.5-fold increase) was less than 0.1 µM.

As for `Cc1cn2nc(-c3cc(=O)n4cc(OC5CCN(C)CC5)ccc4n3)cc2c(C)n1` [Compound 722, 2-(4,6-dimethylpyrazolo[1,5-a]pyrazin-2-yl)-7-[(1-methylpiperidin-4-yl)oxy]-4H-pyrido[1,2-a]pyrimidin-4-one], the melting point was 249 to 252 °C. Moreover, in data set [1], the “EC1.5x for Smn protein expression” value is listed as “**** (an EC1.5x≤0.3 μM is indicated by four stars (****))” and the “maximum fold (Fold) increase” value is on record as “***** (a fold increase >1.65 is indicated by five stars (*****))”. The EC (1.5-fold increase) in data set [2] is less than 0.1 µM.

`Cc1nc(C2CCNCC2)cn2c(=O)cc(-c3ccc4nn(C)cc4c3)nc12` [Compound 796, 9-methyl-2-(2-methyl-2H-indazol-5-yl)-7-(piperidin-4-yl)-4H-pyrazino[1,2-a]pyrimidin-4-one] displayed a melting point of 229 to 235 °C. In data set [1], the “EC1.5x for Smn protein expression” value is given as “**** (an EC1.5x≤0.3 μM is indicated by four stars (****))” and the “maximum fold (Fold) increase” value is listed as “***** (a fold increase >1.65 is indicated by five stars (*****))”. In addition, in data set [2], the EC (1.5-fold increase) is less than 0.1 µM.

Regarding `CCc1nc(C)cn2nc(-c3cc(=O)n4cc(N5CCN[C@H](C)C5)cc(C)c4n3)cc12` [Compound 783, 2-(4-ethyl-6-methylpyrazolo[1,5-a]pyrazin-2-yl)-9-methyl-7-[(3R)-3-methylpiperazin-1-yl]-4H-pyrido[1,2-a]pyrimidin-4-one], the melting point lay in the range of 223 to 233 °C. In data set [1], the “EC1.5x for Smn protein expression” value is reported as “**** (an EC1.5x≤0.3 μM is indicated by four stars (****))” and the “maximum fold (Fold) increase” value is listed as “***** (a fold increase >1.65 is indicated by five stars (*****))”. For the same compound, in data set [2], the EC (1.5-fold increase) is less than 0.1 µM.

Consider `Cc1cn2nc(-c3cc(=O)n4cc(N5CCC(N6CCOCC6)CC5)ccc4n3)cc2c(C)n1` [Compound 428, 2-(4,6-dimethylpyrazolo[1,5-a]pyrazin-2-yl)-7-[4-(morpholin-4-yl)piperidin-1-yl]-4H-pyrido[1,2-a]pyrimidin-4-one], for which the melting point was in the range of 192 to 195 °C. In data set [1], the “EC1.5x for Smn protein expression” value is “** (an EC1.5× between >1 μM and ≤3 μM is indicated by two stars (**))”; the “maximum fold (Fold) increase” value was “*** (a fold increase between >1.35 and ≤1.5 is indicated by three stars (***))”. The EC (1.5-fold increase) in data set [2] is 0.3 to 1 µM.

With `Cc1nc2ccc(-c3cc(=O)n4cc(N5CCN6CCC[C@@H]6C5)ccc4n3)cc2s1` [Compound 284, 7-[(8aR)-hexahydropyrrolo[1,2-a]pyrazin-2(1H)-yl]-2-(2-methyl-1,3-benzothiazol-6-yl)-4H-pyrido[1,2-a]pyrimidin-4-one], the melting point was in the range of 254 to 256 °C. Further, in data set [1], the “EC1.5x for Smn protein expression” value is “*** (an EC1.5× between >0.3 μM and ≤1 μM is indicated by three stars (***))”; the “maximum fold (Fold) increase” value was “**** (a fold increase between >1.5 and ≤1.65 is indicated by four stars (****))”. Also, the EC (1.5-fold increase) in data set [2] is 0.3 to 1 µM.

The compound `Cc1nc2cc(-c3cc(=O)n4cc(N5CCN(C)CC5)ccc4n3)ccc2s1` [Compound 176, 2-(2-methyl-1,3-benzothiazol-5-yl)-7-(4-methylpiperazin-1-yl)-4H-pyrido[1,2-a]pyrimidin-4-one] displayed a melting point of 214 to 218 °C. Besides, in data set [1], the “EC1.5x for Smn protein expression” value was “* (An EC1.5× for Smn protein expression between >3 μM and ≤10 μM is indicated by one star (*))”; the “maximum fold (Fold) increase” value is “*** (a fold increase between >1.35 and ≤1.5 is indicated by three stars (***))”. In addition, the EC (1.5-fold increase) in data set [2] lay in the range of 0.3 to 1 µM.

Take `N#Cc1ccc(-c2cc(=O)n3cc(N4CCNCC4)ccc3n2)cc1` [Compound 73, 4-[4-oxo-7-(piperazin-1-yl)-4H-pyrido[1,2-a]pyrimidin-2-yl]benzonitrile]: the melting point is 146 to 151 °C. Further, the “maximum fold (Fold) increase” value in data set [1] is “** (a fold increase between >1.2 and ≤1.35 is indicated by two stars (**))”. Besides, the EC (1.5-fold increase) in data set [2] lay within 3 to 30 µM.

In turn, `Cc1cn2cc(-c3ccc4nc(C5CCN(C(C)C)CC5)cc(=O)n4c3)ccc2n1` [Compound 461, 7-(2-methylimidazo[1,2-a]pyridin-6-yl)-2-[1-(propan-2-yl)piperidin-4-yl]-4H-pyrido[1,2-a]pyrimidin-4-one] registered a melting point of 215 to 218 °C. In addition, in data set [1], the “EC1.5x for Smn protein expression” value is “** (an EC1.5× between >1 μM and ≤3 μM is indicated by two stars (**))”; the “maximum fold (Fold) increase” value is “**** (a fold increase between >1.5 and ≤1.65 is indicated by four stars (****))”. In data set [2], the EC (1.5-fold increase) lay in the range of 0.3 to 1 µM.

`CCc1nc(C)cn2nc(-c3cc(=O)n4cc(N5CCCNCC5)ccc4n3)cc12` [Compound 760, 7-(1,4-diazepan-1-yl)-2-(4-ethyl-6-methylpyrazolo[1,5-a]pyrazin-2-yl)-4H-pyrido[1,2-a]pyrimidin-4-one] gave a melting point of 212 to 214 °C. Further, in data set [1], the “EC1.5x for Smn protein expression” value is listed as “**** (an EC1.5x≤0.3 μM is indicated by four stars (****))” and the “maximum fold (Fold) increase” value is reported as “***** (a fold increase >1.65 is indicated by five stars (*****))”. Further, in data set [2], the EC (1.5-fold increase) was less than 0.1 µM.

Compound `Cc1cn2cc(-c3cc(=O)n4cc(N5CCN6CCC[C@@H]6C5)ccc4n3)cc(F)c2n1` [Compound 272, 2-(8-fluoro-2-methylimidazo[1,2-a]pyridin-6-yl)-7-[(8aR)-hexahydropyrrolo[1,2-a]pyrazin-2(1H)-yl]-4H-pyrido[1,2-a]pyrimidin-4-one] gave a melting point of 277 to 280 °C. Moreover, in data set [1], the “EC1.5x for Smn protein expression” value is given as “**** (an EC1.5x≤0.3 μM is indicated by four stars (****))” and the “maximum fold (Fold) increase” value was “***** (a fold increase >1.65 is indicated by five stars (*****))”. In data set [2], the EC (1.5-fold increase) is less than 0.1 µM.

Regarding `O=c1cc(-c2ccc(O)c(OC(F)F)c2)nc2ccc(N3CCNCC3)cn12` [Compound 100, 2-[3-(difluoromethoxy)-4-hydroxyphenyl]-7-(piperazin-1-yl)-4H-pyrido[1,2-a]pyrimidin-4-one], the melting point is 233 to 237 °C. Further, in data set [1], the “EC1.5x for Smn protein expression” value is “*** (an EC1.5× between >0.3 μM and ≤1 μM is indicated by three stars (***))”; the “maximum fold (Fold) increase” value is recorded as “***** (a fold increase >1.65 is indicated by five stars (*****))”. Further, the EC (1.5-fold increase) in data set [2] was 0.3 to 1 µM.

Regarding `COc1ccc(-c2cc(=O)n3cc(N4CCN[C@@H](C)C4)ccc3n2)cc1OC(F)(F)F` [Compound 83, 2-[4-methoxy-3-(trifluoromethoxy)phenyl]-7-[(3S)-3-methylpiperazin-1-yl]-4H-pyrido[1,2-a]pyrimidin-4-one], the melting point is 176 to 178 °C. Moreover, the “maximum fold (Fold) increase” value in data set [1] was “* (A maximum fold increase of ≤1.2 is indicated by one star (*))”. Besides, in data set [2], the EC (1.5-fold increase) is 0.3 to 1 µM.

As for `Cc1cc(C2CCN(C)CC2)cn2c(=O)cc(-c3ccc4c(cnn4C)c3)nc12` [Compound 784, 9-methyl-2-(1-methyl-1H-indazol-5-yl)-7-(1-methylpiperidin-4-yl)-4H-pyrido[1,2-a]pyrimidin-4-one], the melting point lay in the range of 255 to 263 °C. In addition, in data set [1], the “EC1.5x for Smn protein expression” value was “*** (an EC1.5× between >0.3 μM and ≤1 μM is indicated by three stars (***))”; the “maximum fold (Fold) increase” value was “**** (a fold increase between >1.5 and ≤1.65 is indicated by four stars (****))”. In addition, in data set [2], the EC (1.5-fold increase) fell in the range of 0.1 to 0.3 µM.

Compound `C[C@H]1CN(c2ccc3nc(-c4ccc5nn(C)cc5c4)cc(=O)n3c2)CCN1` [Compound 138, 2-(2-methyl-2H-indazol-5-yl)-7-[(3S)-3-methylpiperazin-1-yl]-4H-pyrido[1,2-a]pyrimidin-4-one] had a melting point of 166 to 170 °C. Also, in data set [1], the “EC1.5x for Smn protein expression” value is “*** (an EC1.5× between >0.3 μM and ≤1 μM is indicated by three stars (***))”; the “maximum fold (Fold) increase” value is “***** (a fold increase >1.65 is indicated by five stars (*****))”. For the same compound, in data set [2], the EC (1.5-fold increase) lay within 0.1 to 0.3 µM.

On to `CCc1nc2ccc(-c3cc(=O)n4cc(N5CCN[C@@H](C)C5)ccc4n3)cc2o1` [Compound 266, 2-(2-ethyl-1,3-benzoxazol-6-yl)-7-[(3S)-3-methylpiperazin-1-yl]-4H-pyrido[1,2-a]pyrimidin-4-one], for which the melting point was 168 to 170 °C. Further, the “maximum fold (Fold) increase” value in data set [1] is “** (a fold increase between >1.2 and ≤1.35 is indicated by two stars (**))”. In addition, the EC (1.5-fold increase) in data set [2] is 1 to 3 µM.

In turn, `O=c1cc(-c2cncc(F)c2)nc2ccc(N3CCNCC3)cn12` [Cpd 92, 2-(5-fluoropyridin-3-yl)-7-(piperazin-1-yl)-4H-pyrido[1,2-a]pyrimidin-4-one] displayed a melting point of 201 to 208 °C. In addition, the “maximum fold (Fold) increase” value in data set [1] is “** (a fold increase between >1.2 and ≤1.35 is indicated by two stars (**))”. Further, in data set [2], the EC (1.5-fold increase) was in the range of 1 to 3 µM.

(Values after patent US11753407B2, “Compounds for treating spinal muscular atrophy” (PTC Therapeutics, Inc., priority 2012, dated 2023).)
